In patent publication US12637478B2, “Compound, preparation method thereof, and antibiotic composition comprising same” (priority 2020, dated 2026):
In brackets after ≈: the same amount, converted by molar mass.

Legend:
S. epidermis = assay: MIC by broth microdilution (aerobic pathogens), test strain 5; assay type: cell-based; details: Staphylococcus epidermidis; test strain 5, S. epidermis; read-out: MIC
Method: (§1) The antibacterial activity of the compounds of Examples 1 to 48 of the present invention against aerobic pathogens were evaluated by measuring the minimum concentration of the antibiotic capable of inhibiting bacterial growth by 90% compared to the growth of the non-drug treated control group. MIC was measured by the broth microdilution method based on CLSI standards [Reference: Clinical and Laboratory Standards Institute Document. (2000) Methods for Dilution Antimicrobial Susceptibility Test for Bacteria that Grow Aerobically-Fifth Edition: M7-A5. CLSI, Villanova, PA].
(§2) All 13 strains such as methicillin susceptible Staphylococcus aureus (MSSA), methicillin resistant Staphylococcus aureus (MRSA), Vancomycin resistant Staphylococcus aureus (VRSA), Staphylococcus epidermidis, methicillin resistant Staphylococcus epidermidis, Enterococcus faecalis, Vancomycin resistant Enterococcus faecalis, Enterococcus faecium, Vancomycin resistant Enterococcus faecium were used.

E. faecium^LinR = assay: MIC by broth microdilution (aerobic pathogens), test strain 12; assay type: cell-based, Linezolid resistant Enterococcus faecium; details: Enterococcus faecium; test strain 12, E. faecium^LinR (linezolid resistant); read-out: MIC
Method: as §1, §2

E. faecalis^LinR = assay: MIC by broth microdilution (aerobic pathogens), test strain 9; assay type: cell-based, Linezolid resistant Enterococcus faecalis; details: Enterococcus faecalis; test strain 9, E. faecalis^LinR (linezolid resistant); read-out: MIC
Method: as §1, §2

S. aureus^VR = assay: MIC by broth microdilution (aerobic pathogens), test strain 4; assay type: cell-based, Vancomycin resistant Staphylococcus aureus; details: Staphylococcus aureus; test strain 4, S. aureus^VR (vancomycin resistant); read-out: MIC
Method: as §1, §2

E. faecalis^VanA = assay: MIC by broth microdilution (aerobic pathogens), test strain 8; assay type: cell-based, Vancomycin resistant Enterococcus faecalis; details: Enterococcus faecalis; test strain 8, E. faecalis^VanA (vancomycin resistant); read-out: MIC
Method: as §1, §2

S. aureus^MR = assay: MIC by broth microdilution (aerobic pathogens), test strain 3; assay type: cell-based, Methicillin resistant Staphylococcus aureus; details: Staphylococcus aureus; test strain 3, S. aureus^MR (methicillin resistant); read-out: MIC
Method: as §1, §2

E. faecium = assay: MIC by broth microdilution (aerobic pathogens), test strain 10; assay type: cell-based; details: Enterococcus faecium; test strain 10, E. faecium; read-out: MIC
Method: as §1, §2

S. epidermis^MR = assay: MIC by broth microdilution (aerobic pathogens), test strain 6; assay type: cell-based, Methicillin resistant Staphylococcus epidermidis; details: Staphylococcus epidermidis; test strain 6, S. epidermis^MR (methicillin resistant); read-out: MIC
Method: as §1, §2

S. aureus^MS [1] = assay: MIC by broth microdilution (aerobic pathogens), test strain 2; assay type: cell-based; details: Staphylococcus aureus; test strain 2, S. aureus^MS; read-out: MIC
Method: as §1, §2

E. faecium^VRE = assay: MIC by broth microdilution (aerobic pathogens), test strain 11; assay type: cell-based, Vancomycin resistant Enterococcus faecium; details: Enterococcus faecium; test strain 11, E. faecium^VRE (vancomycin resistant); read-out: MIC
Method: as §1, §2

E. faecalis = assay: MIC by broth microdilution (aerobic pathogens), test strain 7; assay type: cell-based; details: Enterococcus faecalis; test strain 7, E. faecalis; read-out: MIC
Method: as §1, §2

S. aureus^MS [2] = assay: MIC by broth microdilution (aerobic pathogens), test strain 1; assay type: cell-based; details: Staphylococcus aureus; test strain 1, S. aureus^MS; read-out: MIC
Method: as §1, §2

C. difficile 9689 = assay: MIC by agar dilution against Clostridioides difficile, test strain 13; assay type: cell-based; details: test strain 13, C. difficile 9689, anaerobic, agar dilution, read-out: MIC
C. difficile 174 = assay: MIC by agar dilution against Clostridioides difficile, test strain 18; assay type: cell-based; details: test strain 18, C. difficile 174, anaerobic, agar dilution, read-out: MIC
C. difficile 161 = assay: MIC by agar dilution against Clostridioides difficile, test strain 16; assay type: cell-based; details: test strain 16, C. difficile 161, anaerobic, agar dilution, read-out: MIC
C. difficile 181 = assay: MIC by agar dilution against Clostridioides difficile, test strain 19; assay type: cell-based; details: test strain 19, C. difficile 181, anaerobic, agar dilution, read-out: MIC
C. difficile 159 = assay: MIC by agar dilution against Clostridioides difficile, test strain 15; assay type: cell-based; details: test strain 15, C. difficile 159, anaerobic, agar dilution, read-out: MIC
C. difficile 152 = assay: MIC by agar dilution against Clostridioides difficile, test strain 14; assay type: cell-based; details: test strain 14, C. difficile 152, anaerobic, agar dilution, read-out: MIC
C. difficile 173 = assay: MIC by agar dilution against Clostridioides difficile, test strain 17; assay type: cell-based; details: test strain 17, C. difficile 173, anaerobic, agar dilution, read-out: MIC

What does the source list for `C/C=C(\NC(=O)c1csc(-c2csc(-c3ccc4c(n3)-c3csc(n3)[C@H]([C@@H](C)O)NC(=O)c3csc(n3)[C@H](C(C)C)NC(=O)c3csc(n3)/C(=C/C)NC(=O)[C@H]([C@@H](C)O)NC(=O)c3csc-4n3)n2)n1)C(=O)NCCCN1CCOCC1` [Compound 48]?
MIC (S. epidermis): 0.5 µg/mL (≈ 0.412 µM); MIC (E. faecium^LinR): 1 µg/mL (≈ 0.824 µM); MIC (E. faecalis^LinR): 1 µg/mL (≈ 0.824 µM); MIC (S. aureus^VR): 1 µg/mL (≈ 0.824 µM); MIC (E. faecalis^VanA): 0.5 µg/mL (≈ 0.412 µM); MIC (S. aureus^MR): 1 µg/mL (≈ 0.824 µM); MIC (E. faecium): 0.5 µg/mL (≈ 0.412 µM); MIC (S. epidermis^MR): 0.5 µg/mL (≈ 0.412 µM); MIC (S. aureus^MS [1]): 0.5 µg/mL (≈ 0.412 µM); MIC (E. faecium^VRE): 1 µg/mL (≈ 0.824 µM); MIC (E. faecalis): 0.5 µg/mL (≈ 0.412 µM); MIC (S. aureus^MS [2]): 0.5 µg/mL (≈ 0.412 µM)

How did the MIC (S. epidermis) turn out when `C/C=C1\NC(=O)[C@H]([C@@H](C)O)NC(=O)c2csc(n2)-c2ccc(-c3nc(-c4nc(C(=O)NC5(C(=O)NCCn6c([N+](=O)[O-])cnc6C)CC5)cs4)cs3)nc2-c2csc(n2)[C@H]([C@@H](C)O)NC(=O)c2csc(n2)[C@H](C(C)C)NC(=O)c2csc1n2` [Compound 11] was run?
Its MIC is 0.125 µg/mL (≈ 0.101 µM).

And the MIC (C. difficile 9689)?
The MIC was 1 µg/mL (≈ 0.807 µM).

What about the MIC (E. faecalis^LinR) of the same compound?
The MIC was 0.5 µg/mL (≈ 0.403 µM).

And the MIC (E. faecalis^VanA)?
The MIC was 1 µg/mL (≈ 0.807 µM).

What about the MIC (C. difficile 174) of the same compound?
Its MIC is 0.125 µg/mL (≈ 0.101 µM).

And the MIC (C. difficile 161)?
The MIC was 0.5 µg/mL (≈ 0.403 µM).

What about the MIC (C. difficile 181) of the same compound?
Its MIC is 0.125 µg/mL (≈ 0.101 µM).

And the MIC (E. faecium)?
The MIC was 1 µg/mL (≈ 0.807 µM).

What about the MIC (S. epidermis^MR) of the same compound?
Its MIC is 0.5 µg/mL (≈ 0.403 µM).

What about the MIC (S. aureus^MS [1]) of the same compound?
The MIC was 0.5 µg/mL (≈ 0.403 µM).

What about the MIC (C. difficile 159) of the same compound?
Its MIC is 0.5 µg/mL (≈ 0.403 µM).

And the MIC (E. faecalis)?
The MIC was 0.25 µg/mL (≈ 0.202 µM).

What about the MIC (C. difficile 152) of the same compound?
The MIC was 0.25 µg/mL (≈ 0.202 µM).

And the MIC (S. aureus^MS [2])?
Its MIC is 0.5 µg/mL (≈ 0.403 µM).

And the MIC (C. difficile 173)?
The MIC was 0.125 µg/mL (≈ 0.101 µM).

What does the source list for `CC(=O)NC[C@H]1CN(c2ccc(N3CCOCC3)c(F)c2)C(=O)O1` [Lin, Linezolid, reference compound]?
MIC (S. epidermis): 1 µg/mL (≈ 2.96 µM); MIC (E. faecium^LinR): 32 µg/mL (≈ 94.9 µM); MIC (E. faecalis^LinR): 64 µg/mL (≈ 190 µM); MIC (S. aureus^VR): 8 µg/mL (≈ 23.7 µM); MIC (E. faecalis^VanA): 2 µg/mL (≈ 5.93 µM); MIC (S. aureus^MR): 4 µg/mL (≈ 11.9 µM); MIC (E. faecium): 4 µg/mL (≈ 11.9 µM); MIC (S. epidermis^MR): 1 µg/mL (≈ 2.96 µM); MIC (S. aureus^MS [1]): 1 µg/mL (≈ 2.96 µM); MIC (E. faecium^VRE): 2 µg/mL (≈ 5.93 µM); MIC (E. faecalis): 2 µg/mL (≈ 5.93 µM); MIC (S. aureus^MS [2]): 2 µg/mL (≈ 5.93 µM)

Which results are given for `C/C=C1\NC(=O)[C@H]([C@@H](C)O)NC(=O)c2csc(n2)-c2ccc(-c3nc(-c4nc(C(=O)NC5(C(=O)NCCn6cc([N+](=O)[O-])nc6C)CC5)cs4)cs3)nc2-c2csc(n2)[C@H]([C@@H](C)O)NC(=O)c2csc(n2)[C@H](C(C)C)NC(=O)c2csc1n2` [Compound 45]?
MIC (C. difficile 9689): 0.5 µg/mL (≈ 0.403 µM); MIC (C. difficile 174): 0.5 µg/mL (≈ 0.403 µM); MIC (C. difficile 161): 0.5 µg/mL (≈ 0.403 µM); MIC (C. difficile 181): 1 µg/mL (≈ 0.807 µM); MIC (C. difficile 159): 0.5 µg/mL (≈ 0.403 µM); MIC (C. difficile 152): 0.5 µg/mL (≈ 0.403 µM); MIC (C. difficile 173): 1 µg/mL (≈ 0.807 µM)

With `C/C=C1\NC(=O)[C@H]([C@@H](C)O)NC(=O)c2csc(n2)-c2ccc(-c3nc(-c4nc(C(=O)NC5(C(=O)NCCn6ccnc6[N+](=O)[O-])CC5)cs4)cs3)nc2-c2csc(n2)[C@H]([C@@H](C)O)NC(=O)c2csc(n2)[C@H](C(C)C)NC(=O)c2csc1n2` [Compound 39] as the compound, how does the MIC (C. difficile 9689) read?
Its MIC is 0.25 µg/mL (≈ 0.204 µM).

And the MIC (C. difficile 174)?
The MIC was 1 µg/mL (≈ 0.816 µM).

And the MIC (C. difficile 161)?
Its MIC is 0.25 µg/mL (≈ 0.204 µM).

And the MIC (C. difficile 181)?
The MIC was 0.5 µg/mL (≈ 0.408 µM).

What about the MIC (C. difficile 159) of the same compound?
The MIC was 1 µg/mL (≈ 0.816 µM).

And the MIC (C. difficile 152)?
Its MIC is 0.25 µg/mL (≈ 0.204 µM).

What about the MIC (C. difficile 173) of the same compound?
Its MIC is 0.5 µg/mL (≈ 0.408 µM).

What does the source list for `C/C=C1\NC(=O)[C@H]([C@@H](C)O)NC(=O)c2csc(n2)-c2ccc(-c3nc(-c4nc(C(=O)NC5(C(=O)NCC6OB(O)c7ccccc76)CC5)cs4)cs3)nc2-c2csc(n2)[C@H]([C@@H](C)O)NC(=O)c2csc(n2)[C@H](C(C)C)NC(=O)c2csc1n2` (stereo partly drawn) [Compound 6]?
MIC (S. epidermis): 0.5 µg/mL (≈ 0.406 µM); MIC (E. faecium^LinR): 0.5 µg/mL (≈ 0.406 µM); MIC (C. difficile 9689): 1 µg/mL (≈ 0.812 µM); MIC (E. faecalis^LinR): 0.125 µg/mL (≈ 0.101 µM); MIC (S. aureus^VR): 1 µg/mL (≈ 0.812 µM); MIC (E. faecalis^VanA): 1 µg/mL (≈ 0.812 µM); MIC (C. difficile 174): 0.06 µg/mL (≈ 0.0487 µM); MIC (C. difficile 181): 0.06 µg/mL (≈ 0.0487 µM); MIC (E. faecium): 0.25 µg/mL (≈ 0.203 µM); MIC (S. epidermis^MR): 1 µg/mL (≈ 0.812 µM); MIC (S. aureus^MS [1]): 0.25 µg/mL (≈ 0.203 µM); MIC (E. faecium^VRE): 1 µg/mL (≈ 0.812 µM); MIC (E. faecalis): 0.125 µg/mL (≈ 0.101 µM); MIC (C. difficile 152): 0.06 µg/mL (≈ 0.0487 µM); MIC (S. aureus^MS [2]): 0.5 µg/mL (≈ 0.406 µM); MIC (C. difficile 173): 0.06 µg/mL (≈ 0.0487 µM)
